Where two headings read alike, the source gives them in different places.
Columns and labels:
[1] = system: S. elongatus strain BUOH-SE; assay: n-Butanol toxicity test (growth); assay type: cell-based, Synechococcus elongatus PCC 7942
Method: Growth was measured daily.

[2] = system: S. elongatus strain BUOH-SE
Method: S. elongatus PCC7942 cells were grown according to the procedure in “culture medium and condition”. Once growth reached OD730 about 2, the culture was diluted to OD730 of 0.1 with 50 mL fresh BG11 medium containing 50 mM NaHCO3 and appropriate antibiotics. Then, various amounts of n-butanol were added into the culture to achieve the desired concentration (0, 250, 500, 750, and 1000 mg/L). Growth was measured daily. Every two days, 5 mL of culture was removed and 5 mL fresh BG-11 containing 500 mM NaHCO3, appropriate amounts of antibiotics and n-butanol was added back to the culture to ensure sufficient carbon supply.

[3] = biological target: Listeria monocytigenes PduP, CoA-acylating propionaldehyde dehydrogenase (PduP_L.mon, NP_464690, SEQ ID NO:49 and 50), poly-His6 tagged (Listeria monocytogenes, UniProt Q8Y7V4); assay: Kinetic parameters of PduP (CoA-acylating aldehyde dehydrogenase), NADH depletion at 340 nm
Method: (§1) Protein purification was done by using His-Spin Protein miniprep purification kit from Zymo following manufacturer's manual. Overnight culture of E. coli strain BL-21(DE3) harboring different pCDF-pdup plasmid was used to inoculate fresh 20 ml LB. The newly inoculated culture was incubated at 37° C. until OD600 nm reaches 0.6 which was then induced with 1 mM IPTG. The induced cultures were then incubated overnight in 30° C. rotary shaker to allow protein expression. The cultures were then harvested by centrifugation at 4,300×g for 20 min. The pellet was then resuspended with 1 mL of Zymo His-binding buffer and mixed with 1 mL of 0.1 mm glass beads (Biospec). The sample was then homogenated using TissueLyser II (Quiagen).
(§2) Enzyme assays were conducted by using Bio-Tek PowerWave XS microplate spectrophotometer. CoA-acylating aldehyde dehydrogenase activity was measured by the decrease of absorbance at 340 nm, corresponding to depletion of NADH. […] For determining specific activity for other chain length acyl-CoA, 500 μM was used. The mixture excluding acyl-CoA was incubated for 5 minutes at 30° C. The addition of the acyl-CoA initiated the reaction. kcat and Km were determined by nonlinear regression fitting to Michaelis-Menten equation using graphing software Origin.
(§3) To characterize these PduP homologues, plasmids harboring individual pduP genes were constructed with a poly-His6 tag (plasmids pCDF-pduP_ahyd, pCDF-pdup_kpne, pCDF-pdup_lbre, pCDF-pdup_lmon, pCDF-pdup_sent, and pCDF-pdup_pgin). PduP homologues were then purified under aerobic condition without cleaving off His tags. The activities of the enzymes were determined using acyl-CoA with different chain lengths, and the disappearance of NADH was monitored.
(§4) The efficiency of these PduP homologues were assessed.

[4] = biological target: Klebsiella pneumoniae PduP, CoA-acylating propionaldehyde dehydrogenase (PduP_K.pne, YP_001336844, SEQ ID NO:45 and 46), poly-His6 tagged (Klebsiella pneumoniae, UniProt A0ACD7U6D7); assay: as above
Method: as §1, §2, §3, §4

[5] = biological target: Porphyromonas gingivalis PduP, CoA-acylating propionaldehyde dehydrogenase (PduP_P.gin, YP_001928839, SEQ ID NO:51 and 52), poly-His6 tagged (Porphyromonas gingivalis, UniProt B2RIP7); assay: as above
Method: as §1, §2, §3, §4

[6] = biological target: Salmonella enterica PduP, CoA-acylating propionaldehyde dehydrogenase (PduP_S.ent, AAD39015, SEQ ID NO:33 and 34), poly-His6 tagged (Salmonella enterica, UniProt Q9XDN1); assay: as above
Method: as §1, §2, §3, §4

[7] = biological target: T1, Lactobacillus brevis PduP, CoA-acylating propionaldehyde dehydrogenase (PduP_L.bre, YP_795711, SEQ ID NO:47 and 48), poly-His6 tagged (Levilactobacillus brevis, UniProt Q03Q42); assay: as above; assay type: biochemical
T1 sequence (Q03Q42 1-477): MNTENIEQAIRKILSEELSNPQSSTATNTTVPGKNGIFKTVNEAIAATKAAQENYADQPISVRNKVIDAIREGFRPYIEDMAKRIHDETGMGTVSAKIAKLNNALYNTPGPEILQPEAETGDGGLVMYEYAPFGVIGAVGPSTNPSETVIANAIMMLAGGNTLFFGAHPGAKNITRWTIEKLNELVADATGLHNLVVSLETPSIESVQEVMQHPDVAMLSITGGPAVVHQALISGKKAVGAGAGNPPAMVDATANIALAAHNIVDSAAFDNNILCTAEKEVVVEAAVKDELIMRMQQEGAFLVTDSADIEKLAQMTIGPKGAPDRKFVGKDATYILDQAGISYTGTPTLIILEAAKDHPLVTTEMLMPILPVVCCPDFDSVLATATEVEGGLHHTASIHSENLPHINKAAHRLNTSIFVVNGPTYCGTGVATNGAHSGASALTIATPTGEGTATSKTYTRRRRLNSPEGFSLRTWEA
Method: as §1, §2, §3, §4

[8] = CoA-acylating aldehyde dehydrogenase (PduP) assay, butyryl-CoA reduction; assay type: biochemical; conditions: purified under aerobic condition; 500 μM NADH, 1 mM DTT, pH 7.15, 30° C.
Method: as §1, §2, §3, §4

[9] = substrate: CCCC(=O)SCCNC(=O)CCNC(=O)[C@H](O)C(C)(C)COP(=O)(O)OP(=O)(O)OC[C@H]1O[C@@H](n2cnc3c(N)ncnc32)[C@H](O)[C@@H]1OP(=O)(O)O; assay: purified protein, by the assay type; conditions: other: pH 7.15, 30° C., 500 μM NADH, 1 mM DTT, acyl-CoA 0.03 mM to 2 mM
[10] = substrate: CC(=O)SCCNC(=O)CCNC(=O)[C@H](O)C(C)(C)COP(=O)(O)OP(=O)(O)OC[C@H]1O[C@@H](n2cnc3c(N)ncnc32)[C@H](O)[C@@H]1OP(=O)(O)O; assay: purified protein, by the assay type; conditions: other: pH 7.15, 30° C., 500 μM NADH, 1 mM DTT, acyl-CoA 0.03 mM to 2 mM
E. coli strain JCL166 = assay: E. coli anaerobic growth rescue with PduP and n-butanol pathway; assay type: cell-based; conditions: GC of culture medium
Method: Cells of E. coli strain JCL166 and its derivatives were cultured overnight in LB with appropriate antibiotics at 37° C. Overnight cultures (3 μL) were used to inoculate 3 mL of fresh LB media supplemented with 1% glucose and appropriate antibiotics (100 μg/mL ampicillin and 50 μg/mL kanamycin) and 0.1 mM IPTG in 10 mL BD vacutainers. A needle with Millipore PES filter was used to pierce through the rubber cap of the culture. The headspace of these cultures was then purged several times with 95% N2/5% H2 gas using an anaerobic chamber (Coy Lab Products, Grass Lake, Mich.). The needle with filter was removed in anaerobic chamber. These anaerobic cultures were then taken out of anaerobic chamber and incubated in 37° C. rotary shaker. Culture was analyzed 24 hours later for cell density and alcohol content measurement.
These PduP homologues were tested for n-butanol production utilizing an anaerobic growth rescue assay. E. coli strain JCL 166 (ΔadhE, ΔldhA, ΔfrdB) contains gene knock-outs for mixed acid fermentation. Fermentation pathways are essential for E. coli to recycle NADH back into to NAD^+ for the Embden-Meyerhof-Parnas pathway to continue (FIG. 2A). […] The culture medium of these anaerobically grown cultures were analyzed for alcohol production (FIG. 2C) using gas chromatography (GC).

[11] = Substrate chain length specificity of PduP; assay type: biochemical; conditions: acyl-CoA chain lengths C2 to C12
Method: FIG. 3A-B Substrate chain length specificity of CoA-acylating aldehyde dehydrogenases, PduP. A) Specific activity of different PduP (pmol min^−1 mg^−1). B) Relative activity of PduP. Specific activity was determined with substrate concentration of 1 mM acyl-CoA, 500 uM NADH, 1 mM DTT in 50 mM potassium phosphate buffer at pH 7.15 at 30° C.
as §2, §3

[12] = kcat/Km butyryl-CoA over kcat/Km acetyl-CoA
[13] = pH 7.15, 30° C., 500 μM NADH, 1 mM DTT, acyl-CoA 0.03 mM to 2 mM

Porphyromonas gingivalis PduP, CoA-acylating propionaldehyde dehydrogenase (PduP_P.gin, YP_001928839, SEQ ID NO:51 and 52), poly-His6 tagged, sequence (B2RIP7 entry or part of it): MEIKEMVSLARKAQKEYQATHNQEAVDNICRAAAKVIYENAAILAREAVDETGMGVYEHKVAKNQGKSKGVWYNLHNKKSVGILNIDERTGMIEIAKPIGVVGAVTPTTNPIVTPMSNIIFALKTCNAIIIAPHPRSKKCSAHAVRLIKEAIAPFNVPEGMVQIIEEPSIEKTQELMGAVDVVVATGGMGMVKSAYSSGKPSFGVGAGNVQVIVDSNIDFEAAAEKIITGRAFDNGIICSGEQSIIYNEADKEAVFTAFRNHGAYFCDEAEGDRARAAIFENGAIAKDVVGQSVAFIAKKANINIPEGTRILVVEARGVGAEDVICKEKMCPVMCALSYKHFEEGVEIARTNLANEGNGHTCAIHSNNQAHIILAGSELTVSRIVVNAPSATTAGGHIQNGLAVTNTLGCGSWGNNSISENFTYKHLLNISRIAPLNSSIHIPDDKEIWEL
Listeria monocytigenes PduP, CoA-acylating propionaldehyde dehydrogenase (PduP_L.mon, NP_464690, SEQ ID NO:49 and 50), poly-His6 tagged, sequence (Q8Y7V4 entry or part of it): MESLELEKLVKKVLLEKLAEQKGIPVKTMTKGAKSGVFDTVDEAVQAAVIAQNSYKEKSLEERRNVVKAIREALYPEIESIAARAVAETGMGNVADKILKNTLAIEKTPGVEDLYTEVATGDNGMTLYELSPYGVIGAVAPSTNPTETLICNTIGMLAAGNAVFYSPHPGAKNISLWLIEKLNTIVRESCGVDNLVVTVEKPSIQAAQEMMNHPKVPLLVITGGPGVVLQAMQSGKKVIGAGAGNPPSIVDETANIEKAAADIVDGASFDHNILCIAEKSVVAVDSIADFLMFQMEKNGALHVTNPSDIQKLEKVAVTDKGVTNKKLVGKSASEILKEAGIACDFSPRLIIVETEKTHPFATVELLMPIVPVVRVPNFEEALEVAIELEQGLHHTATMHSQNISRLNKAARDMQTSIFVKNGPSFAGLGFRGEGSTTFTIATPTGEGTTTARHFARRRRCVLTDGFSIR
Salmonella enterica PduP, CoA-acylating propionaldehyde dehydrogenase (PduP_S.ent, AAD39015, SEQ ID NO:33 and 34), poly-His6 tagged, sequence (Q9XDN1 whole entry): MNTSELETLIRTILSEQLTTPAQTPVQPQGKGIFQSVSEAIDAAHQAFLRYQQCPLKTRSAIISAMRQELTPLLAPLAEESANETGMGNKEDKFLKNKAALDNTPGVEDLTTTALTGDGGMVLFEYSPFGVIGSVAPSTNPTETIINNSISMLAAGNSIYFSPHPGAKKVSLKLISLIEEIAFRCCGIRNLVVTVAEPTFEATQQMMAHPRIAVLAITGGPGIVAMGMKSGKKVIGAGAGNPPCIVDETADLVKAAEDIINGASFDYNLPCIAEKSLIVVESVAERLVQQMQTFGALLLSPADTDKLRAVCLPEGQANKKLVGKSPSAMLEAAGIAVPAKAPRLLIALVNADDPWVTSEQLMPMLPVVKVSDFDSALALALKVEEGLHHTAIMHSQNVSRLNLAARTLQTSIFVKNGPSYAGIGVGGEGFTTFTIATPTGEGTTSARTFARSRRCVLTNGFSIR

CCCCO [n-butanol]
growth of S. elongatus strain BUOH-SE ([1]; 750 mg/L n-butanol in culture medium): visible growth retardation | growth of S. elongatus strain BUOH-SE ([1]; 1 g/L n-butanol): cell growth is inhibited | growth of S. elongatus strain BUOH-SE ([2]; 750 mg/L of n-butanol in culture medium): visible growth retardation | growth of S. elongatus strain BUOH-SE ([2]; 1 g/L of n-butanol): cell growth is inhibited

CCCC(=O)SCCNC(=O)CCNC(=O)[C@H](O)C(C)(C)COP(=O)(O)OP(=O)(O)OC[C@H]1O[C@@H](n2cnc3c(N)ncnc32)[C@H](O)[C@@H]1OP(=O)(O)O [Butyryl-CoA, butyryl-CoA]
Ratio C4:C2 (butyryl-CoA to acetyl-CoA catalytic efficiency ratio) [3, 12]: 1.4 | kcat [3, 13]: 11.99 ± 1.56 s⁻¹ | Ratio C4:C2 (butyryl-CoA to acetyl-CoA catalytic efficiency ratio) [4, 12]: 5 | kcat [4, 13]: 7.02 ± 0.64 s⁻¹ | Ratio C4:C2 (butyryl-CoA to acetyl-CoA catalytic efficiency ratio) [5, 12]: 0.6 | kcat [5, 13]: 0.19 ± 0.02 s⁻¹ | Ratio C4:C2 (butyryl-CoA to acetyl-CoA catalytic efficiency ratio) [6, 12]: 6.8 | kcat [6, 13]: 25.38 ± 1.81 s⁻¹ | Ratio C4:C2 (butyryl-CoA to acetyl-CoA catalytic efficiency ratio) [7, 12]: 2 | kcat [7, 13]: 3.37 ± 0.19 s⁻¹

B1: Lactobacillus brevis PduP, CoA-acylating propionaldehyde dehydrogenase (PduP_L.bre, YP_795711, SEQ ID NO:47 and 48), poly-His6 tagged (Levilactobacillus brevis … (protein)
chain: MNTENIEQAIRKILSEELSNPQSSTATNTTVPGKNGIFKTVNEAIAATKAAQENYADQPISVRNKVIDAIREGFRPYIEDMAKRIHDETGMGTVSAKIAKLNNALYNTPGPEILQPEAETGDGGLVMYEYAPFGVIGAVGPSTNPSETVIANAIMMLAGGNTLFFGAHPGAKNITRWTIEKLNELVADATGLHNLVVSLETPSIESVQEVMQHPDVAMLSITGGPAVVHQALISGKKAVGAGAGNPPAMVDATANIALAAHNIVDSAAFDNNILCTAEKEVVVEAAVKDELIMRMQQEGAFLVTDSADIEKLAQMTIGPKGAPDRKFVGKDATYILDQAGISYTGTPTLIILEAAKDHPLVTTEMLMPILPVVCCPDFDSVLATATEVEGGLHHTASIHSENLPHINKAAHRLNTSIFVVNGPTYCGTGVATNGAHSGASALTIATPTGEGTATSKTYTRRRRLNSPEGFSLRTWEA
Specific activity for butyryl-CoA reduction [8]: 2.5 ± 0.2 µmol/min/mg | Km [9]: 534.3 ± 59.8 µM | Km [10]: 76.0 ± 38.2 µM | Alcohol production from the growth rescue broth, n-butanol versus ethanol (E. coli strain JCL166): more n-butanol than ethanol | Acyl-CoA substrate favoured (highest specific activity) [11]: hexanoyl-CoA

B2: K. pne: PduP homologue from Klebsiella pneumoniae, YP_001336844; SEQ ID NO:45 and 46 (protein, listed as Klebsiella pneumoniae)
chain: MNTAELETLIRTILSEKLAPTPPAPQQEQGIFCDVGSAIDAAHQAFLRYQQCPLKTRSAIISALRETLAPELATLAEESATETGMGNKEDKYLKNKAALENTPGIEDLTTSALTGDGGMVLFEYSPFGVIGAVAPSTNPTETIINNSISMLAAGNSVYFSPHPGAKKVSLKLIARIEEIAYRCSGIRNLVVTVAEPTFEATQQMMSHPLIAVLAITGGPGIVAMGMKSGKKVIGAGAGNPPCIVDETADLVKAAEDIISGAAFDYNLPCIAEKSLIVVASVADRLIQQMQDFDALLLSRQEADTLRAVCLPDGAANKKLVGKSPAALLAAAGLAVPPRPPRLLIAEVEANAPWVTCEQLMPVLPIVRVADFDSALALALRVEEGLHHTAIMHSQNVSRLNLAARTLQTSIFVKNGPSYAGIGVGGEGFTTFTIATPTGEGTTSARTFARLRRCVLTNGFSIR
Specific activity for butyryl-CoA reduction [8]: 8.9 ± 4.6 µmol/min/mg | Alcohol production from the growth rescue broth, n-butanol versus ethanol (E. coli strain JCL166): more n-butanol than ethanol | Acyl-CoA substrate favoured (highest specific activity) [11]: highest for propionyl-CoA reduction
